US11142526B2, “Spirocycle compounds and methods of making and using same” (H. Lundbeck A/S, priority 2017, dated 2021)
Like-named read-outs stand apart in the source and are kept apart here.

How the values were obtained:
[1] = biological target: MAGL (Homo sapiens (Human), UniProt Q99685); test: In vitro competitive activity-based protein profiling (gel-based, FP-Rh or HT-01 probe); format: biochemical
Procedure: In Vitro Competitive Activity-Based Protein Profiling.
Proteomes (human prefrontal cortex or cell membrane fractions) (50 μL, 1.0 mg/mL total protein concentration) were preincubated with varying concentrations of inhibitors at 37° C. After 30 min, FP-Rh or HT-01 (1.0 μL, 50 μM in DMSO) was added and the mixture was incubated for another 30 min at room temperature. Reactions were quenched with SDS loading buffer (15 μL—4×) and run on SDS-PAGE.

[2] = biological target: MAGL (Mus musculus (Mouse), UniProt O35678); test: In vitro competitive activity-based protein profiling, mouse brain proteome; format: biochemical; conditions: for inhibition at 1 µM: mouse; for IC50: mouse brain
MAGL (Mus musculus (Mouse), UniProt O35678), sequence (O35678 whole entry): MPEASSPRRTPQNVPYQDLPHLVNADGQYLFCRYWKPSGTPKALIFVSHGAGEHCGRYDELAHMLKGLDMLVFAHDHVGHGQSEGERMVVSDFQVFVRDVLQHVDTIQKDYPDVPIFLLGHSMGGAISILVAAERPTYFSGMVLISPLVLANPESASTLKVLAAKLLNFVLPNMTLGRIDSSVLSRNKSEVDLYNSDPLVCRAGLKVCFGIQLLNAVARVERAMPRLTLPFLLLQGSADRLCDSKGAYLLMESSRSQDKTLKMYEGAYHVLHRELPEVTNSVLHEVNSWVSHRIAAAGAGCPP

[3] = human PC3, read-out: MAGL % Inhibition at 1 μM (human PC3)
[4] = human PFC (prefrontal cortex), read-out: MAGL % Inhibition at 1 μM (human PFC)
[5] = human PC3, read-out: MAGL Human PC3 (IC50)
[6] = human PFC (prefrontal cortex), read-out: MAGL Human PFC (IC50)

MAGL (Homo sapiens (Human), UniProt Q99685), sequence (Q99685 whole entry): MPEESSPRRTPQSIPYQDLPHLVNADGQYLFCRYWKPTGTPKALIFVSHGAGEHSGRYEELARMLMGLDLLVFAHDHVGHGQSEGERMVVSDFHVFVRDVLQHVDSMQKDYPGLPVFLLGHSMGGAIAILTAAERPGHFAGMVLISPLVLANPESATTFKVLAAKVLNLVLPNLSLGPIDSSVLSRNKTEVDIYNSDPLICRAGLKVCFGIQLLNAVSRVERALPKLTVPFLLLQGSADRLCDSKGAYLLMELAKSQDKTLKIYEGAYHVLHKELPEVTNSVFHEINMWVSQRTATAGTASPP

SMILES | inhibition at 1 µM [1, 3] [%] | inhibition at 1 µM [1, 4] [%] | inhibition at 1 µM [2] [%] | IC50 [1, 5] [nM] | IC50 [2] [nM] | IC50 [1, 6] [nM]
O=C(OC(C(F)(F)F)C(F)(F)F)N1CCC2(CCCN2C(=O)c2cc3nccc(C(F)(F)F)n3n2)CC1 [Example 164, 1,1,1,3,3,3-Hexafluoropropan-2-yl 1-(7-(trifluoromethyl)pyrazolo[1,5-a]pyrimidine-2-carbonyl)-1,8-diazaspiro[4.5] decane-8-carboxylate] | > 75 | > 75 | > 75 | – | – | –
O=C(OC(C(F)(F)F)C(F)(F)F)N1CCC2(CCCN2C(=O)c2cc3nccc(C4CC4)n3n2)CC1 [Example 165, 1,1,1,3,3,3-Hexafluoropropan-2-yl 1-(7-cyclopropylpyrazolo [1,5-a]pyrimidine-2-carbonyl)-1,8-diazaspiro[4.5] decane-8-carboxylate] | > 75 | > 75 | > 75 | – | – | –
O=C(OC(C(F)(F)F)C(F)(F)F)N1CCC2(CCCN2C(=O)c2c(C(F)(F)F)nc3n2CCCC3)CC1 [Example 139, 1,1,1,3,3,3-Hexafluoropropan-2-yl 1-(2-(trifluoromethyl)-5,6,7,8-tetrahydroimidazo [1,2-a]pyridine-3-carbonyl)-1,8-diazaspiro[4.5] decane-8-carboxylate] | – | > 75 | > 75 | < 100 | – | –
O=C(OC(C(F)(F)F)C(F)(F)F)N1CCC2(CCCN2C(=O)c2cncnc2)CC1 [Example 68, 1,1,1,3,3,3-Hexafluoropropan-2-yl 1-(pyrimidine-5-carbonyl)-1,8-diazaspiro[4.5] decane-8-carboxylate] | – | 25 to 75 | < 25 | – | – | –
O=C(OC(C(F)(F)F)C(F)(F)F)N1CCC2(CCCN2C(=O)c2ncccn2)CC1 [Example 12, 1,1,1,3,3,3-Hexafluoropropan-2-yl 1-(pyrimidine-2-carbonyl)-1,8-diazaspiro[4.5]decane-8-carboxylate] | – | < 25 | < 25 | – | – | –
O=C(OC(C(F)(F)F)C(F)(F)F)N1CCC2(CCCN2C(=O)c2cnn(Cc3ccccc3)c2)CC1 [Example 88, 1,1,1,3,3,3-Hexafluoropropan-2-yl 1-(1-benzyl-1H-pyrazole-4-carbonyl)-1,8-diazaspiro[4.5] decane-8-carboxylate] | – | – | > 75 | < 100 | < 100 | –
CC1(NC(=O)c2cn3c(n2)CN(C(=O)C2(F)CC2)CC3)CCN(C(=O)OC(C(F)(F)F)C(F)(F)F)CC1 [Example 192, 1,1,1,3,3,3-Hexafluoropropan-2-yl 4-(7-(1-fluorocyclopropane-1-carbonyl)-5,6,7,8-tetrahydroimidazo[1,2-a]pyrazine-2-carboxamido)-4-methylpiperidine-1-carboxylate] | > 75 | – | > 75 | < 100 | – | –
Cn1ccc(C(=O)N2CCCC23CCN(C(=O)OC(C(F)(F)F)C(F)(F)F)CC3)n1 [Example 79, 1,1,1,3,3,3-Hexafluoropropan-2-yl 1-(1-methyl-1H-pyrazole-3-carbonyl)-1,8-diazaspiro[4.5] decane-8-carboxylate] | – | – | > 75 | < 100 | 100 to 1000 | –
O=C(O)Cn1cc(Cl)c(C(=O)N2CCCC23CCN(C(=O)OC(C(F)(F)F)C(F)(F)F)CC3)n1 [Example 173, 2-(4-Chloro-3-(8-(((1,1,1,3,3,3-hexafluoropropan-2-yl)oxy)carbonyl)-1,8-diazaspiro[4.5]decane-1-carbonyl)-1H-pyrazol-1-yl)acetic acid] | – | > 75 | < 25 | – | – | –
O=C(OC(C(F)(F)F)C(F)(F)F)N1CCC2(CCCN2C(=O)c2cc(N3CCCC3)nc(Cl)n2)CC1 [Example 119, 1,1,1,3,3,3-Hexafluoropropan-2-yl 1-(2-chloro-6-(pyrrolidin-1-yl)pyrimidine-4-carbonyl)-1,8-diazaspiro [4.5]decane-8-carboxylate] | – | > 75 | > 75 | < 100 | – | < 100
COc1ncc(CN2CCCC23CCN(C(=O)OC(C(F)(F)F)C(F)(F)F)CC3)s1 [Example 138, 1,1,1,3,3,3-Hexafluoropropan-2-yl 1-((2-methoxythiazol-5-yl)methyl)-1,8-diazaspiro[4.5] decane-8-carboxylate] | – | > 75 | > 75 | < 100 | – | –
O=C(OC(C(F)(F)F)C(F)(F)F)N1CCC2(CCCN2C(=O)c2c(C3CC3)nc3cccnn23)CC1 [Example 3, 1,1,1,3,3,3-Hexafluoropropan-2-yl 1-(2-cyclopropylimidazo[1,2-b]pyridazine-3-carbonyl)-1,8-diazaspiro[4.5]decane-8-carboxylate] | > 75 | > 75 | > 75 | – | – | –
Cc1c(Cl)c(C(=O)N2CCCC23CCN(C(=O)OC(C(F)(F)F)C(F)(F)F)CC3)nn1C [Example 131, 1,1,1,3,3,3-Hexafluoropropan-2-yl 1-(4-chloro-1,5-dimethyl-1H-pyrazole-3-carbonyl)-1,8-diazaspiro[4.5] decane-8-carboxylate] | – | > 75 | > 75 | < 100 | – | –
O=C(OC(C(F)(F)F)C(F)(F)F)N1CCC2(CCCN2C(=O)c2cnc(Cl)nc2N2CCCC2)CC1 [Example 117, 1,1,1,3,3,3-Hexafluoropropan-2-yl 1-(2-chloro-4-(pyrrolidin-1-yl)pyrimidine-5-carbonyl)-1,8-diazaspiro [4.5]decane-8-carboxylate] | – | > 75 | > 75 | < 100 | – | –
O=C(OC(C(F)(F)F)C(F)(F)F)N1CCC2(CCCN2C(=O)c2cnn3c2NCCC3)CC1 [Example 147, 1.1,1,3,3,3-Hexafluoropropan-2-yl 1-(4,5,6,7-tetrahydropyrazolo [1,5-a]pyrimidine-3-carbonyl)-1,8-diazaspiro[4.5] decane-8-carboxylate] | > 75 | > 75 | > 75 | < 100 | – | –
[2H]C1(N2CCn3cc(C(=O)N(C)C4(C)CCN(C(=O)OC(C(F)(F)F)C(F)(F)F)CC4)nc3C2)CC1 [Example 25, 1,1,1,3,3,3-hexafluoropropan-2-yl 4-(7-(cyclopropyl-1-d)-N-methyl-5,6,7,8-tetrahydroimidazo[1,2-a]pyrazine-2-carboxamido)-4-methylpiperidine-1-carboxylate] | > 75 | – | > 75 | < 100 | – | –
O=C(OC(C(F)(F)F)C(F)(F)F)N1CCC2(CCCN2C(=O)c2cnn3ccc(Cl)nc23)CC1 [Example 145, 1,1,1,3,3,3-Hexafluoropropan-2-yl 1-(5-chloropyrazolo[1,5-a]pyrimidine-3-carbonyl)-1,8-diazaspiro[4.5] decane-8-carboxylate] | > 75 | > 75 | > 75 | < 100 | – | –
COc1ccnc(C2(C(=O)N3CCCC34CCN(C(=O)OC(C(F)(F)F)C(F)(F)F)CC4)CC2)n1 [Example 203, 1,1,1,3,3,3-Hexafluoropropan-2-yl 1-(1-(4-methoxypyrimidin-2-yl)cyclopropane-1-carbonyl)-1,8-diazaspiro [4.5]decane-8-carboxylate] | > 75 | > 75 | > 75 | < 100 | – | –
CN(C(=O)C1(c2ncccn2)CC1)C1(C)CCN(C(=O)OC(C(F)(F)F)C(F)(F)F)CC1 [Example 177, 1,1,1,3,3,3-Hexafluoropropan-2-yl 4-methyl-4-(N-methyl-1-(pyrimidin-2-yl)cyclopropane-1-carboxamido) piperidine-1-carboxylate] | > 75 | > 75 | > 75 | – | – | –
O=C(OC(C(F)(F)F)C(F)(F)F)N1CCC2(CCCN2C(=O)C2(c3ncc(C4CC4)cn3)CC2)CC1 [Example 33, 1,1,1,3,3,3-Hexafluoropropan-2-yl 1-(1-(5-cyclopropylpyrimidin-2-yl)cyclopropane-1-carbonyl)-1,8-diazaspiro[4.5]decane-8-carboxylate] | > 75 | – | > 75 | – | – | < 100
O=C(OC(C(F)(F)F)C(F)(F)F)N1CCC2(CCCN2C(=O)c2nn3cccnc3c2Cl)CC1 [Example 157, 1,1,1,3,3,3-Hexafluoropropan-2-yl 1-(3-chloropyrazolo[1,5-a]pyrimidine-2-carbonyl)-1,8-diazaspiro[4.5] decane-8-carboxylate] | > 75 | > 75 | > 75 | – | – | –
O=C(OC(C(F)(F)F)C(F)(F)F)N1CCC2(CCCN2C(=O)c2cc3n(n2)CCN(CC2CC2)C3)CC1 [Example 156, 1,1,1,3,3,3-Hexafluoropropan-2-yl 1-(5-(cyclopropylmethyl)-4,5,6,7-tetrahydropyrazolo [1,5-a]pyrazine-2-carbonyl)-1,8-diazaspiro[4.5] decane-8-carboxylate] | > 75 | > 75 | > 75 | < 100 | – | –
Cc1ccc2sc(C(=O)N3CCCC34CCN(C(=O)OC(C(F)(F)F)C(F)(F)F)CC4)cc2c1 [Example 17, 1,1,1,3,3,3-Hexafluoropropan-2-yl 1-(5-methylbenzo[b]thiophene-2-carbonyl)-1,8-diazaspiro[4.5]decane-8-carboxylate] | – | > 75 | > 75 | – | – | < 100
O=C(OC(C(F)(F)F)C(F)(F)F)N1CCC2(CCN(Cc3cccnn3)C2)CC1 [Example 9, 1,1,1,3,3,3-Hexafluoropropan-2-yl 2-(pyridazin-3-ylmethyl)-2,8-diazaspiro[4.5]decane-8-carboxylate] | – | > 75 | – | – | – | –
